Results on 91 molecules are retold here after PubChem BioAssay AID602168 (The Scripps Research Institute Molecular Screening Center, 2012).

Activity calls are given as the source filed them. How the calls were made is not given here.

The target in the experiment is Nuclear receptor coactivator 1 (Homo sapiens) (UniProt Q15788). Briefly: NCOA1 reporter inhibition potency – cell-based, luminescence, counter-screen for SRC3 inhibitor project, dose response (AID 602168). The note with it: Cell-based SRC1 luciferase reporter. (In general: Counterscreens check selectivity or assay interference.)
Chain of Nuclear receptor coactivator 1 (Homo sapiens) (Q15788 whole entry, looked up): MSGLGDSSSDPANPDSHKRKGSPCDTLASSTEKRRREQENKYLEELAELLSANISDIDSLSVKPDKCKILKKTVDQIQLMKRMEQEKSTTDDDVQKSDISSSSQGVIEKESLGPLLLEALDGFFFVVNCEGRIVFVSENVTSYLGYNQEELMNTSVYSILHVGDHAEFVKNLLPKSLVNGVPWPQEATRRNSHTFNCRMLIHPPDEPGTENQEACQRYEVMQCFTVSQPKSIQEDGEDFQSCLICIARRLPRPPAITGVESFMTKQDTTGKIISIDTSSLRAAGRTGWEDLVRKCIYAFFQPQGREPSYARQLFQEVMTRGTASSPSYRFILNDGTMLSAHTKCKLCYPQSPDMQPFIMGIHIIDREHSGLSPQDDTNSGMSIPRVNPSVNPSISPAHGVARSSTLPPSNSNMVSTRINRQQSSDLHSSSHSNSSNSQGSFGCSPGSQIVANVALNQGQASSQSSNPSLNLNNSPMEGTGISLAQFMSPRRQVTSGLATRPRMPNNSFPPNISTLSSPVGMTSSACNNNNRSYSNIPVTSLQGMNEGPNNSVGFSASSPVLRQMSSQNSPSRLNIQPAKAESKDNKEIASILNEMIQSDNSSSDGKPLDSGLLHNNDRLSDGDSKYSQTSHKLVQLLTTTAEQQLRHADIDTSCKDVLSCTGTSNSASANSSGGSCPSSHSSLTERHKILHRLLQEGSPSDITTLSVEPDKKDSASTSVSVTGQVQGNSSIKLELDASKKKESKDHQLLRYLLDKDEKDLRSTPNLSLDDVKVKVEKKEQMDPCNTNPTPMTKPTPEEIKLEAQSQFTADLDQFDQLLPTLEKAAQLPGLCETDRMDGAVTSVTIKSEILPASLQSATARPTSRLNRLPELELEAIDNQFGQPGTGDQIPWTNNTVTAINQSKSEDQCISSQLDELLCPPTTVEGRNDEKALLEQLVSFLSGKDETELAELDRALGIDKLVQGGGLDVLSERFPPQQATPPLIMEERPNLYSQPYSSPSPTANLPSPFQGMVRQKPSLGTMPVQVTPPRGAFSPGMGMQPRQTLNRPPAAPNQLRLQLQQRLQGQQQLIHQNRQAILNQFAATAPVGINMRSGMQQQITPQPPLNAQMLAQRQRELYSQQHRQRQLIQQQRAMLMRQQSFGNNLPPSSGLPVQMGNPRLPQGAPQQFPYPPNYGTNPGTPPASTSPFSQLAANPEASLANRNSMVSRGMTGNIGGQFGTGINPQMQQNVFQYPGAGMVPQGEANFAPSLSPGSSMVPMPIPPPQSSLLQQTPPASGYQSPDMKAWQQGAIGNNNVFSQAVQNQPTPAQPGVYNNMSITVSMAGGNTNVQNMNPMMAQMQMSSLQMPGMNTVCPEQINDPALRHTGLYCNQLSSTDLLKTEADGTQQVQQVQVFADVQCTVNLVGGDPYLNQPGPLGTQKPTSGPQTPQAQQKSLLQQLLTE
A word on the IC50: it is the concentration that inhibits the measured activity by half. For the molecule `O=C(Nc1cccc(C(F)(F)F)c1)Nc1nnc([C@@H]2C[C@H](O)[C@@H](CO)O2)s1`, the concentration for half-maximal inhibition (IC50) is 5.71 µM.

Regarding `CC(=O)c1cccc(NC(=O)Nc2ccc3c(c2)N(C)C(=O)CS3)c1`, the IC50 entry was “inactive”. To `Cc1ccc(C(=O)O/N=C(\N)c2ccccn2)c(Cl)c1` belongs > 35.9 µM (inactive); to `C(=N\Nc1ccc2ccccc2n1)/c1ccc2c(c1)OCCO2`, “inactive”; to `OCCN1CCN(C(=S)c2ccc(-c3ccccc3)cc2)CC1`, 3.67 µM. To `COc1cc(/C=C2\CC(C(C)(C)C)C/C(=C\c3cc(OC)c(OC)c(OC)c3)C2=O)cc(OC)c1OC` (stereo unspecified) belongs > 35.9 µM (inactive); to `CC(C)N(c1ccccc1)c1ccc(NC(=O)CCl)cc1`, > 35.8 µM (inactive). The figure for `CC(=O)Nc1ccc(SCC(=O)c2cc(C)n(-c3ccccc3)c2C)cc1` is > 35.9 µM (inactive); for `COCCNC(=O)c1cc(-c2ccccn2)nc2ccc(S(=O)(=O)N3CCC(C)CC3)cc12` it is > 35.9 µM (inactive); for `COc1cc2c(ccc3cc(OC)c(OC)c(O)c32)cc1O` it is “inactive”.

For `COc1ccc(/C=C2\CC/C(=C\c3ccc(OC)c(OC)c3)C2=O)cc1OC`, the IC50 is > 35.9 µM (inactive). To `Cc1ccc2nc(-c3ccncc3)c(NC3CCCC3)n2c1` belongs “inactive”. To `CN[C@H]1CCc2cc(OC)c(OC)c(OC)c2-c2ccc(OC)c(=O)cc21` belongs > 35.9 µM (inactive); to `C(=NNc1ccc2ccccc2n1)c1ccccn1`, > 35.9 µM (inactive). `O=C(CCl)N(c1ccccc1)C1CCCCC1`: the IC50 entry is “inactive”. On to `Cc1c(CC(=O)NCCCC(=O)O)c(=O)oc2cc3c(cc12)CCC(C)(C)O3`, for which the half-inhibitory concentration (IC50) is 9.04 µM. To `COc1cccc(/C=N/Nc2ccc([N+](=O)[O-])cn2)c1O` belongs > 35.9 µM (inactive); to `Nc1ccc(Oc2ccccc2-c2ccccc2)cc1`, “inactive”. The figure for `Nc1nc(=S)c2ncn([C@@H]3O[C@H](CO)[C@@H](O)[C@H]3O)c2[nH]1` is > 35.9 µM (inactive); for `Cc1cc2nccc(-c3ccncc3)n2n1` it is “inactive”; for `CC(=O)c1cccc(-c2csc3ncnc(Sc4nnnn4C)c23)c1` it is > 35.9 µM (inactive). To `COc1cccc(NC(=O)CSc2nnc(-c3cc(C)n(-c4ccccc4)c3C)o2)c1` belongs > 35.9 µM (inactive); to `Cc1cccc2sc(NNC(=O)c3ccc(S(=O)(=O)N4CC(C)CC(C)C4)cc3)nc12` (stereo unspecified), 4.52 µM; to `Cc1c(/C(O)=C2/C(=O)C(=O)N(Cc3cccnc3)C2c2ccccn2)cnn1-c1ccccc1` (stereo unspecified), > 35.9 µM (inactive). Take `COC(CN(C(=O)CCl)C(C(=O)NC1CCCCC1)c1ccccc1C)OC` (stereo unspecified): the IC50 entry was “inactive”.

As to `O=C(c1ccncc1)N(Cc1cc2ccccc2[nH]c1=O)C1CCCCC1`, the IC50 was 7.48 µM. To `COc1ccc(OC)c(N/C=C/C(=O)c2ccccc2)c1` belongs “inactive”; to `Cc1ccc(C2=NN(C(=O)CCl)C(c3cccs3)C2)o1` (stereo unspecified), “inactive”; to `CCC(=O)N1CCN(c2ccnc3cc(Cl)ccc23)CC1`, “inactive”. To `Cc1nc(N)nc(N)c1-c1ccc(Cl)c(Cl)c1` belongs 5.41 µM. The figure for `C=CCn1c(O)c(C(C)=NCc2cc(OC)cc(OC)c2)c(=O)[nH]c1=O` is > 35.9 µM (inactive); for `O=C(Nc1nc2cc3c(cc2s1)OCCO3)C1=COCCO1` it is “inactive”. Turning to `S=C(Nc1ccccc1)Nc1ccc(OCc2ccc(Cl)cc2Cl)cc1`, the IC50 entry is “inactive”. To `COc1cc(/C=C(/C(=O)c2cccs2)c2nc3ccccc3[nH]2)cc(OC)c1O` belongs > 35.9 µM (inactive). The figure for `Cc1ccc2occ(/C=N/NC(=O)c3ccccc3Br)c(=O)c2c1` is > 35.9 µM (inactive); for `Cc1ccc(-n2c(Cl)c(Cl)nc(Cl)c2=O)cc1` it is “inactive”. To `COc1ccc(/C=C2\CN(Cc3ccccc3)C/C(=C\c3ccc(OC)c(O)c3)C2=O)cc1O` belongs > 35.9 µM (inactive); to `COc1cc(C(=O)N/N=C(\c2ccccc2)c2ccccn2)cc(OC)c1OC`, > 12 µM (inactive). Regarding `O=[N+]([O-])c1nn(-c2ccc3c(c2)OCCO3)n(O)c1=Nc1ccccc1`, the 50% inhibitory concentration (IC50) is 0.812 µM. The entry for `CN(C)S(=O)(=O)c1ccc(N2CCN(S(=O)(=O)c3ccc(F)cc3)CC2)c(Cl)c1` is “inactive”; for `Cc1ccc(OCC(=O)c2cc(C)n(-c3ccccc3)c2C)c([N+](=O)[O-])n1` it is “inactive”. The figure for `COc1ccccc1N(C(=O)CCl)c1cn(C(C)=O)c2ccccc12` is > 35.9 µM (inactive); for `COc1cc(NS(C)(=O)=O)ccc1Nc1c2ccccc2nc2ccccc12` it is > 35.9 µM (inactive); for `COc1cc2c(cc1OC)C(C)N(C(=O)c1cccc([N+](=O)[O-])c1)CC2` (stereo unspecified) it is “inactive”.

For `CCOc1cc(C(N)=O)cc(Br)c1OC`, the IC50 entry is “inactive”. As for `c1ccc(-c2nnc(-c3ccccn3)nc2NC2CCCCC2)cc1`, the IC50 was 4.38 µM. The entry for `CCn1c2ccccc2c2cnc(N=CN(C)C)c(C#N)c21` is “inactive”; for `Nc1ncccc1C(=O)OCC(=O)N1CCN(S(=O)(=O)c2ccc(Cl)cc2)CC1` it is “inactive”; for `Cc1cc(C(=O)COC(=O)C2=COCCO2)c(C)n1-c1ccccc1` it is “inactive”. Take `Nc1nc(CCl)nc(Nc2cccc3ccccc23)n1`: the IC50 entry is “inactive”. To `O=C(CCCc1nc(-c2ccccc2Cl)no1)NC1CCCC1` belongs “inactive”.

Consider `CCCC(=O)NC(c1ccc(Cl)cc1Cl)c1ccc2cccnc2c1O` (stereo unspecified), for which the IC50 was 6.03 µM. Regarding `CS(=O)(=O)c1ccc(Sc2nc3ccccc3s2)c([N+](=O)[O-])c1`, the IC50 was > 35.9 µM (inactive). The figure for `COc1cccc2c1C(=N)c1c(O)c3c(c(O)c1C2=O)CC(O)(C(C)=O)CC3OC1CC(N)C(O)C(C)O1` (stereo unspecified) is > 35.9 µM (inactive). To `CC(C)(C)C(=O)Nc1ccc(N=Nc2ccccc2)cc1` belongs > 35.9 µM (inactive). To `Cc1ccc(C(=O)Nc2cnc3ccccc3c2)cc1` belongs “inactive”; to `CNc1ncnc(Sc2nc(N)nc3nc[nH]c23)c1[N+](=O)[O-]`, > 35.9 µM (inactive). On to `COc1cc(C(=O)OCC(=O)Nc2sccc2C(N)=O)cc(OC)c1OC`, for which the IC50 was > 35.9 µM (inactive).

As to `Cc1ccc(N(CCC#N)C(=O)CCl)cc1C`, the IC50 result was “inactive”.

Take `Cc1nc([N+](=O)[O-])c(Sc2nc3ccccc3n2C)n1Cc1ccccc1`: the IC50 was > 35.9 µM (inactive).

On to `Nc1nc2c(nnn2C2CC(O)C(CO)O2)c(=O)[nH]1` (stereo unspecified), for which the IC50 is > 35.9 µM (inactive). To `NC(=O)c1sc2nc3c(c(-c4ccco4)c2c1N)CCC3` belongs 3.29 µM. To `COC(=O)c1c(C)n(-c2ccc(OC)cc2)c2ccc(O)cc12` belongs 8.12 µM; to `O=C(NC(NC(=S)N1CCOCC1)C(Cl)(Cl)Cl)c1ccc(Cl)cc1` (stereo unspecified), “inactive”.

For the molecule `Cc1ccc(-n2c(C)cc(C(=O)COc3cccnc3[N+](=O)[O-])c2C)cc1`, the IC50 is > 35.9 µM (inactive).

As to `C=CCn1c(C)cc(C(=O)COc2ccc(C)nc2[N+](=O)[O-])c1C`, the IC50 was > 35.9 µM (inactive). As to `CN(C)c1ccc(CNC(=O)CCNS(=O)(=O)c2cc(Br)cnc2N)cc1`, the IC50 result was “inactive”. To `CN(C)c1ccc(/C=C/c2ccc3ccccc3n2)cc1` belongs “inactive”. To `O=c1[nH]cnc2c1nnn2C1OC(CO)C(O)C1O` (stereo unspecified) belongs > 35.8 µM (inactive). The entry for `N#Cc1c2ccc(O)cc2n2ccccc12` is “inactive”; for `COc1ccc(-n2cnc3c(sc4nccc(N(C)C)c43)c2=O)cc1` it is “inactive”; for `COc1cc(/C=N/NC(N)=S)cc(Br)c1OCc1ccccc1F` it is “inactive”. In the case of `O=C(NCCCn1ccnc1)c1ccc(N2CCCCCC2)c([N+](=O)[O-])c1`, the IC50 entry is “inactive”.

In the case of `CC(=O)c1ccc(Nc2c3c(nc4ccccc24)CCCC3)cc1`, the IC50 was > 35.9 µM (inactive). To `CCCNC(=O)c1nnsc1S(=O)(=O)c1ccc(Cl)cc1` belongs “inactive”. The figure for `C(=N\Nc1nc2ccccc2[nH]1)/c1cccc2cccnc12` is > 35.9 µM (inactive); for `C=C1C(=O)[C@]23C[C@H]1CCC2[C@@]1(C)C(C[C@@H]3O)[C@](C)(C(=O)OC)CC[C@@H]1O` (stereo partly specified) it is “inactive”; for `CCn1nc(/C=C/c2ccccc2)nc2c(=O)n(C)c(=O)nc1-2` it is > 35.9 µM (inactive). For the molecule `O=C(CCl)N1N=C(c2ccco2)CC1c1ccco1` (stereo unspecified), the IC50 was > 35.9 µM (inactive). The figure for `COc1ccc(Nc2ccncc2[N+](=O)[O-])cc1` is 9.17 µM.

Take `CN(Cc1cnc2nc(N)nc(N)c2n1)c1ccc(C(=O)N[C@@H](CCC(=O)O)C(=O)O)cc1`: the IC50 is > 35.9 µM (inactive). To `C=CS(=O)(=O)N(Cc1ccc(Cl)c(Cl)c1)C[C@@H](O)CO` belongs > 35.8 µM (inactive). To `O=C(NCc1ccccc1)c1c(Cl)nc(Cl)c(Cl)c1Cl` belongs > 35.9 µM (inactive); to `CCOc1cc(/C=C2\CCC/C(=C\c3cc(Cl)c(O)c(OCC)c3)C2=O)cc(Cl)c1O`, > 35.8 µM (inactive). To `NC(=S)N/N=C1\CCOc2ccc(Cl)cc21` belongs > 35.9 µM (inactive); to `COc1ccc2[nH]c(=O)c(CN(CCN3CCCC3)C(=O)Nc3ccccc3Cl)cc2c1`, “inactive”; to `CC1CCN(C2=NC(=O)/C(=C/c3ccccc3F)S2)CC1`, > 35.9 µM (inactive). Turning to `O=C(Nc1nc2ccccc2s1)C1c2ccccc2Oc2ccccc21`, the IC50 result was “inactive”.

On to `CCCc1c(C)nc2ccccc2c1SCCC#N`, for which the IC50 is 9.45 µM.

With `Fc1ccccc1-c1csc(=Nc2cccnc2)n1CCCn1ccnc1`, the IC50 is 7.21 µM. The entry for `COc1cccc(F)c1C(C[N+](=O)[O-])c1c(N)n(C)c(=O)n(C)c1=O` (stereo unspecified) is “inactive”.
